US6203976A, “Methods of preparing compositions comprising chemicals capable of transcriptional modulation” (OSI Pharmaceuticals, Inc., priority 1994, dated 2001)
Where two headings read alike, the source gives them in different places.

How the values were obtained:
[1] = test system: human growth hormone (532) promoter; test: High-throughput luciferase reporter assay, human Growth Hormone promoter (Screen III); type: cell-based; details: 532 cells, 6 hours; for FOLD INHIBITION RELATIVE TO SOLVENT CONTROL, hGH: Screen III inhibitors; for FOLD INDUCTION RELATIVE TO SOLVENT CONTROL, hGH: Screen III activators
MMTV (M10) promoter = test: High-throughput luciferase reporter assay, MMTV promoter (Screen III); type: cell-based, mouse; details: M10 cells, 6 hours; for FOLD INHIBITION RELATIVE TO SOLVENT CONTROL, MMTV: Screen III inhibitors; for FOLD INDUCTION RELATIVE TO SOLVENT CONTROL, MMTV: Screen III activators
Experimental: pMluci and pSV2Neo, an antibiotic resistance plasmid (112), were co-transfected into NIH/3T3 mouse fibroblast cells using the calcium phosphate precipitation method (103) with a commercially available kit (Pharmacia, Piscataway N.J.). Two days later, cells were transferred to media containing 0.4 mg/ml G418 and were grown for an additional 10-14 days. G418-resistant clones were isolated by standard methods. Once sufficient cell numbers were obtained, clones were analyzed based on several criteria: constitutive luciferase production, induction of luciferase expression by dexamethasone (1 μm, Sigma, St. Louis, Mo.), satisfactory attachment to microtiter plates used in the high-throughput screen and acceptable standard deviation in multiple luciferase expression assays (see below for assay protocol). This analysis was carried out using the luciferase assay conditions described above. Of the clones which satisfied the above criteria for the high throuphput screen, one clone, M10, was selected for use.

[2] = test system: human G-CSF (G21) promoter; test: High-throughput luciferase reporter assay, G-CSF promoter (Screen III); details: for FOLD INDUCTION RELATIVE TO SOLVENT CONTROL, GCSF: Screen III activators
[3] = Screen III inhibitors, G21 cells, 6 hours

Structure (SMILES) | FOLD INHIBITION RELATIVE TO SOLVENT CONTROL, hGH [1] | FOLD INHIBITION RELATIVE TO SOLVENT CONTROL, MMTV (MMTV (M10) promoter) | FOLD INHIBITION RELATIVE TO SOLVENT CONTROL, GCSF [2, 3] | FOLD INDUCTION RELATIVE TO SOLVENT CONTROL, hGH [1] | FOLD INDUCTION RELATIVE TO SOLVENT CONTROL, MMTV (MMTV (M10) promoter) | FOLD INDUCTION RELATIVE TO SOLVENT CONTROL, GCSF ([2]; G21 cells, 6 hours) | FOLD INHIBITION RELATIVE TO SOLVENT CONTROL, GCSF [2]
O=C(c1ccc(O)c(O)c1)c1c(O)cc(O)cc1O [compound 660] | 0.34 fold | 1.04 fold | 10.0 fold | – | – | – | –
CN(C)c1ccc(C(=C2C=CC(=[N+](C)C)C=C2)c2ccc([N+](C)(C)C)cc2)cc1 [compound 670] | – | – | – | 0.52 fold | 0.79 fold | > 3 fold | –
C1CCNCC1 [compound 759] | 5.88 fold | 0.95 fold | – | – | – | – | 0.64
CC(=O)OCC(=O)[C@@]1(O)CC[C@H]2[C@@H]3CCC4=CC(=O)C=C[C@]4(C)[C@H]3[C@@H](O)C[C@@]21C [compound 765] | – | – | – | 1.30 fold | 2.66 fold | 0.96 fold | –
CCOc1ccc2nc3cc(N)ccc3c(N)c2c1 [compound 790] | – | – | – | 5.94 fold | 0.58 fold | 0.01 fold | –
O=C1OC2(c3cc(I)c(O)c(I)c3Oc3c2cc(I)c(O)c3I)c2c(Cl)c(Cl)c(Cl)c(Cl)c21 [compound 792] | – | – | – | 5.31 fold | 1.21 fold | 0.94 fold | –
Clc1ccc(Sc2cc(Cl)c(Cl)cc2Cl)cc1 [compound 828] | – | – | – | 1.34 fold | 2.20 fold | 1.47 fold | –
N=c1ccc2nc3ccc(N)cc3sc-2c1 [compound 836] | – | – | – | 0.23 fold | 0.58 fold | 3.20 fold | –
CC1(C)O[C@@H]2C[C@H]3[C@@H]4CCC5=CC(=O)C=C[C@]5(C)[C@@]4(F)[C@@H](O)C[C@]3(C)[C@]2(C(=O)CO)O1 [compound 848] | – | – | – | 1.28 fold | 2.43 fold | 0.75 fold | –
CCCCCCCCCCCCCCCC(=O)OCC(COC(=O)CCCCCCCCCCCCCCC)OC(=O)CCCCCCCCCCCCCCC [compound 856] | – | – | – | 6.49 fold | 0.42 fold | 0.28 fold | –
Nc1ccc(C=CC(=O)O)cc1 [compound 1234] | – | – | – | 0.51 fold | 1.03 fold | 4.97 fold | –
Cc1c(C2(c3cc(Br)c(O)c(Br)c3C)OS(=O)(=O)c3ccccc32)cc(Br)c(O)c1Br [compound 1251] | – | – | – | 15.19 fold | 0.33 fold | 0.14 fold | –
Clc1cc(Cl)cc(Br)c1 [compound 1255] | – | – | – | 0.43 fold | 1.09 fold | 6.74 fold | –
Nc1c(Cl)ncnc1Cl [compound 1269] | – | – | – | 0.91 fold | 2.18 fold | 0.72 fold | –
Nc1ccc2c(c1)Cc1ccccc1-2 [compound 1316] | – | – | – | 1.39 fold | 2.33 fold | 0.74 fold | –
Nc1ccc2c(c1)C(=O)c1ccccc1-2 [compound 1318] | – | – | – | 0.85 fold | 2.41 fold | 1.13 fold | –
Nc1ccc(S(=O)(=O)O)c2cccc(O)c12 [compound 1337] | – | – | – | 15.87 fold | 0.23 fold | 0.07 fold | –
NCc1ccc(S(N)(=O)=O)cc1 [compound 1375] | – | – | – | 0.04 fold | 1.37 fold | 8.94 fold | –
Cc1ccc(N)c(S(=O)(=O)O)c1 [compound 1376] | – | – | – | 0.04 fold | 1.32 fold | 6.37 fold | –
Cc1ccc(C(=O)c2ccccc2N)cc1 [compound 1384] | – | – | – | 0.50 fold | 2.43 fold | 1.33 fold | –

Structure (SMILES) | FOLD INHIBITION RELATIVE TO SOLVENT CONTROL, hGH [1] | FOLD INHIBITION RELATIVE TO SOLVENT CONTROL, MMTV (MMTV (M10) promoter) | FOLD INHIBITION RELATIVE TO SOLVENT CONTROL, GCSF [2, 3] | FOLD INDUCTION RELATIVE TO SOLVENT CONTROL, hGH [1] | FOLD INDUCTION RELATIVE TO SOLVENT CONTROL, MMTV (MMTV (M10) promoter) | FOLD INDUCTION RELATIVE TO SOLVENT CONTROL, GCSF ([2]; G21 cells, 6 hours) | FOLD INHIBITION RELATIVE TO SOLVENT CONTROL, GCSF [2]
Cc1cc(N)sn1 [compound 1397] | – | – | – | 0.57 fold | 1.13 fold | 3.63 fold | –
Nc1ccccc1SSc1ccccc1N [compound 1482] | – | – | – | 0.54 fold | 1.07 fold | 3.99 fold | –
Nc1ccc(SSc2ccc(N)cc2)cc1 [compound 1483] | – | – | – | 0.38 fold | 1.09 fold | 4.64 fold | –
Nc1nc(-c2ccccc2)cs1 [compound 1499] | – | – | – | 5.55 fold | 0.61 fold | 0.24 fold | –
Nc1nc2nc[nH]c2c(=S)[nH]1 [compound 1521] | – | – | – | 0.73 fold | 0.92 fold | 3.59 fold | –
Nc1nccs1 [compound 1550] | – | – | – | 5.44 fold | 0.87 fold | 0.04 fold | –
NC1=NCCS1 [compound 1552] | – | – | – | 7.26 fold | 0.52 fold | 1.23 fold | –
Nc1c(Cl)c(Cl)nc(C(=O)O)c1Cl [compound 1561] | – | – | – | 8.05 fold | 0.48 fold | 0.23 fold | –
Brc1ccc2c3c(cccc13)CC2 [compound 1573] | – | – | – | 0.34 fold | 4.30 fold | 1.49 fold | –
Nc1ncnc2c1nc(Br)n2[C@@H]1O[C@H](CO)[C@@H](O)[C@H]1O [compound 1583] | – | – | – | 0.12 fold | 0.88 fold | 5.82 fold | –
Cc1ccc(P(CCP(c2ccc(C)cc2)c2ccc(C)cc2)c2ccc(C)cc2)cc1 [compound 1591] | 5.55 fold | 0.96 fold | 0.56 fold | – | – | – | –
CC1(C)[C@@H](C(=O)OCC(F)(F)C(F)(F)C(F)(F)C(F)(F)C(F)(F)C(F)F)CC[C@@]1(C)C(=O)OCC(F)(F)C(F)(F)C(F)(F)C(F)(F)C(F)(F)C(F)F [compound 1592] | – | – | – | 0.74 fold | 1.34 fold | 3.20 fold | –
O=C(Nc1cccc(C2=NCCN2)c1)Nc1cccc(C2=NCCN2)c1 [compound 1598] | – | – | – | 5.32 fold | 1.27 fold | 0.72 fold | –
O=S(=O)(O)c1ccc(-c2nnc(-c3ccnc(-c4nnc(-c5ccc(S(=O)(=O)O)cc5)c(-c5ccc(S(=O)(=O)O)cc5)n4)c3)nc2-c2ccc(S(=O)(=O)O)cc2)cc1 [compound 1604] | 5.00 fold | 0.97 fold | 0.77 fold | – | – | – | –
C(=Cc1ccccn1)c1ccccn1 [compound 1640] | 5.00 fold | 0.59 fold | 0.79 fold | – | – | – | –
c1ccc(-c2nccnc2-c2ccccn2)nc1 [compound 1641] | 5.55 fold | 0.60 fold | 0.83 fold | – | – | – | –
O=S(=O)(O)c1ccc(-c2ccnc(-c3nnc(-c4ccc(S(=O)(=O)O)cc4)c(-c4ccc(S(=O)(=O)O)cc4)n3)c2)cc1 [compound 1648] | 7.69 fold | 1.00 fold | 0.86 fold | – | – | – | –
COC(=O)CP(=O)(OCC(F)(F)F)OCC(F)(F)F [compound 1651] | 3.57 fold | 0.70 fold | 0.69 fold | – | – | – | –
O=C(O)c1cc(C(F)(F)F)ccc1C(F)(F)F [compound 1655] | 4.76 fold | 0.81 fold | 0.54 fold | – | – | – | –
OCC1CC2C3CC(CO)C(C3)C2C1 (stereo not drawn) [compound 1678] | – | – | – | 7.08 fold | 0.89 fold | 0.36 fold | –
